This note sets out measurements from paper PMC9888480, “Carboranyl-1,8-naphthalimide intercalators induce lysosomal membrane permeabilization and ferroptosis in cancer cell lines” (Journal of Enzyme Inhibition and Medicinal Chemistry, 2023).

For one assay, the system named is ct-DNA. Kind of assay: Circular dichroism (CD) measurements of ct-DNA. As to conditions: increasing concentration of conjugate, r = 0.1–0.5, cacodylate buffer pH 7.0. The format is binding, calf. Here is the method: The measurements were performed by adding aliquots of DMSO stock solution of the tested compounds to the buffer solution (pH 7.0, 20 mM, cacodylate buffer, DMSO content of the final solutions = 0.22–1.30%). Changes in the CD spectrum of ct-DNA upon the addition of compound were measured at different molar ratios r = [compound]/[ct-DNA]. CD spectra were recorded on a JASCO J-815 CD spectrometer with a JASCO PFD-425S Peltier thermostated cell holder (JASCO, Tokyo, Japan) by using a square quartz cuvette of path length 0.5 cm (0.5 ml) in the 230–400 nm region. The CD profiles reported were an average of three successive scans with a scan time of 200 nm per minute and an appropriately corrected baseline. Temperature was maintained at 20 °C during the experiment.

Assay [1] deals with HepG2 cells. Kind of assay: Real-time cell migration assay (xCELLigence). The format is cell-based, human. The conditions noted are these: one-fourth and half of IC50, 24 h pre-treatment. Here is the method:
Transwell cell migration experiments were performed using an xCELLigence RTCA Analyser (Roche, Switzerland) in CIM plates (ACEA Biosciences, San Diego, CA, USA). Each well consisted of an upper and a lower chamber separated by a microporous polyethylene terephthalate membrane containing randomly distributed 8-µm pores. Prior to the migration assay, the HepG2 cells (2 × 10^4) were seeded onto 48-well plates containing the growth medium (EMEM) and incubated until 70–80% confluency at 37 °C in a humidified atmosphere containing 5% CO2. […] Then, 160 µl of complete growth medium (supplemented with 10% FBS) was added to the lower chamber, and 50 µl of serum-free growth medium was added to the upper chambers of the CIM plate. The plates were incubated at 37 °C under 5% CO2 saturation for 1 h prior to insertion into the xCELLigence platform. To initiate a transwell migration experiment, the cells were detached with trypsin (Corning®), resuspended in the serum-free growth medium, and seeded in the upper chamber at a density of 1 × 10^4 cells in 100 µl per well that was previously treated with the compounds. The impedance of the microelectrode array was monitored and converted to CI. Normalisation values were recorded using the RTCA Software 1.2.1. Readouts were performed every 30 min for 72 h.

In assay [2] the test system is HepG2 cells. Kind of assay: Cell cycle analysis by flow cytometry (PI). The format is cell-based, human. The conditions noted are these: HepG2, 24 h, total IC50 concentration; 5% in untreated cells. Here is the method: The DNA content was determined using flow cytometry with PI (Sigma-Aldrich, Steinheim, Germany) staining. After incubation, the cells were trypsinized and washed twice with 1 ml of PBS (Capricorn). In the next step, the cells were fixed with an ice-cold 80% ethanol. After incubation for 1 h at 4 °C, the fixed cells were washed twice with PBS and suspended in the staining PI/RNAse A/PBS buffer (PI 50 µg/ml, RNAse A 100 µg/ml) for 30 min at 37 °C in the dark. PI (Sigma) fluorescence was measured using a FACSCalibur (Becton Dickinson), and data were analysed using the FlowJo software (Becton Dickinson).

For assay [3], the system named is HepG2 cells. Kind of assay: Reduced glutathione (GSH) level measurement (Thiolite Green). The format is cell-based, human. As to conditions: HepG2, 24 h, total IC50 concentration. Here is the method:
The HepG2 cells were seeded at a density of 2 × 10^5 cells/well onto 12-well plates and under the same environmental conditions as the above experiments. The cells were then treated with the tested compounds at the final concentration equal to the total IC50 values for 24 h. The cellular GSH level was measured by staining with the nonfluorescent Thiolite Green dye, which emits strong fluorescence after reaction with thiols ([…]) according to the manufacturer’s protocol (AAT Bioquest, Sunnyvale, CA, USA). After incubation with the compounds (34–5 µM, 35–4.5 µM, 36–4 µM, 37–4.5 µM) the cells were detached with trypsin (Corning®) and washed twice with 1 ml of DPBS (Capricorn). Subsequently, the cells were suspended in a staining solution (50 µM) and incubated at 37 °C in a 5% CO2 environment for 30 min. After staining, the fluorescence intensity was analysed using a FACSCalibur flow cytometer with excitation at 488 nm, and the data were analysed using the FlowJo software (Becton Dickinson).

Assay [4] relates to HepG2 cells. Kind of assay: Intracellular Fe2+ level determination (FeRhoNox-1). The conditions noted are these: HepG2, 24 h, total IC50 concentration. The format is cell-based, human. Here is the method: The HepG2 cells were seeded at the density of 2 × 10^5 cells/well onto 12-well plates and cultured with supplemented EMEM at 37 °C under 5% CO2 saturation until 70–80% confluency was reached. […] Subsequently, the cells were detached with trypsin (Corning®), washed with 1 ml DPBS (Capricorn), and then resuspended in the growth medium with 5 µM FeRhoNox™-1 (Goryo Chemical) for 1 h. […] The cells were analysed after incubation with the dye with excitation at 488 nm using a FACSCalibur flow cytometer (Becton Dickinson), and the data were analysed using the FlowJo software (Becton Dickinson). To create a strong, single, positive red fluorescence signal, 3 mM N-acetylcysteine (2 h incubation; Sigma-Aldrich) was used.

“Also recorded” adds a separate entry of the source.

Turning to “4-[(6-[(1,2-Dicarba-closo-dodecaborane-1-yl)ethylamino]hexyl)amino]-N-[2-(dimethylamino)ethyl]-3-nitro-1,8-naphthalimide [Compound 34]”, in the assay with ct-DNA, the “change in the CD spectra of ct-DNA” value is listed as “remarkably disturbed”. The “effect on migration of HepG2 cells (slope of cell index, first 24 h)” value (“effect … (slope of cell index, first 24 h)” for short) in the assay on HepG2 cells [1] was “highest influence on the migration activity”.
For “4-[(6-[(1,7-Dicarba-closo-dodecaborane-1-yl)ethylamino]hexyl)amino]-3-nitro-N-[2-(N-pyrrolidinyl)ethyl]-1,8-naphthalimide [Compound 37]”, in the assay on ct-DNA, the “change in the CD spectra of ct-DNA” value was “remarkably disturbed”. Moreover, the “accumulation of cells in G2M phase” value in the assay with HepG2 cells [2] is listed as 15%. Besides, in the assay with HepG2 cells [1], the “effect … (slope of cell index, first 24 h)” value is on record as “highest influence on the migration activity”.
Regarding “4-[(6-[(1,7-Dicarba-closo-dodecaborane-1-yl)ethylamino]hexyl)amino]-N-[2-(dimethylamino)ethyl]-3-nitro-1,8-naphthalimide [Compound 35]”, the “change in the CD spectra of ct-DNA” value with ct-DNA is “remarkably disturbed”. For the same substance, the “accumulation of cells in G2M phase” value in the assay on HepG2 cells [2] turned out to be 15%. For the same substance, in the assay on HepG2 cells [1], the “effect … (slope of cell index, first 24 h)” value is “highest influence on the migration activity; also recorded: highest impairment”. For the same substance, the “GSH level, green fluorescence change compared to control” value with HepG2 cells [3] turned out to be 70%. Also, in the assay on HepG2 cells [4], the “intracellular Fe2+ level (red fluorescence intensity)” value is “highest ferrous level”.
In the case of “4-[(6-[(1,2-Dicarba-closo-dodecaborane-1-yl)ethylamino]hexyl)amino]-3-nitro-N-[2-(N-pyrrolidinyl)ethyl]-1,8-naphthalimide [Compound 36]”, the “change in the CD spectra of ct-DNA” value with ct-DNA was “disturbed”. Besides, the “GSH level, green fluorescence change compared to control” value in the assay with HepG2 cells [3] is on record as “not statistically significant”. Besides, the “intracellular Fe2+ level (red fluorescence intensity)” value in the assay on HepG2 cells [4] is on record as “lowest”.
